{"source": "paper PMC4546510", "about": "(ACS chemical biology, 2015)", "key": {"[1]": {"target": "full-length NS3 (helicase) (Hepatitis C virus genotype 1a, UniProt P26664)", "format": "biochemical"}, "Cell viability assay": {"assay": "Cell viability assay", "format": "cell-based", "conditions": "human"}, "[2]": {"system": "HCVsg 1b(con1)-Rluc replicon", "format": "cell-based, hepatitis C virus genotype 1b", "conditions": "combined with HPI; for Interaction with HPI (deviation from additive effects): Prichard & Shipman definitions; for Volume under the synergy plot (difference from Bliss additivity): MacSynergy II, 95% confidence"}, "[3]": {"system": "HCVsg 1b(con1)-Rluc replicon", "assay": "microbe, parasite or virus in culture", "format": "cell-based, hepatitis C virus genotype 1b (con1)", "conditions": "read-out: EC50 (concentration needed to reduce cellular HCVsg 1b(con1)-Rluc replicon content by 50%)"}, "scNS4A-NS3 V524A": {"system": "scNS4A-NS3 V524A", "assay": "NS3 depsipeptide cleavage", "format": "biochemical, hepatitis C virus genotype 1a", "conditions": "Val524 mutation"}, "scNS4A-NS3 Q526A": {"system": "scNS4A-NS3 Q526A", "assay": "NS3 depsipeptide cleavage", "format": "biochemical, hepatitis C virus genotype 1a"}, "[4]": {"system": "HCVsg 1b(con1) replicon harboring the R155K and V36A mutations", "conditions": "3 days"}, "Huh7.5 cell viability": {"system": "Huh7.5 cell viability", "assay": "Cell viability assay", "format": "cell-based"}, "HCVsg 2a(JFH1) replicon [5]": {"system": "HCVsg 2a(JFH1) replicon", "assay": "HCVsg 2a", "format": "cell-based, hepatitis C virus genotype 2a (JFH1)", "conditions": "Renilla luciferase reporter"}, "[6]": {"target": "recombinant full-length NS3 not fused to NS4A (Hepatitis C virus genotype 1a, UniProt P26664)", "assay": "NS3 depsipeptide cleavage", "format": "biochemical", "conditions": "in the presence and absence of NS4A"}, "[7]": {"system": "BHK DENV-Rluc cell viability"}, "[8]": {"system": "HCVsg 1b(con1) replicon harboring R155K", "conditions": "3 days"}, "scNS4A-NS3 H528A": {"system": "scNS4A-NS3 H528A", "assay": "NS3 depsipeptide cleavage", "format": "biochemical, hepatitis C virus genotype 1a"}, "[9]": {"system": "subgenomic dengue virus replicon (DENVsg 2)", "assay": "Dengue virus subgenomic replicon assay in BHK-21 cells", "format": "cell-based, dengue virus strain 2", "conditions": "Renilla luciferase-tagged replicon"}, "[10]": {"system": "HCVsg 1b(con1)-Rluc replicon", "format": "cell-based, hepatitis C virus genotype 1b"}, "HCVsg 2a(JFH1) replicon [11]": {"system": "HCVsg 2a(JFH1) replicon", "assay": "Colony formation assay, Huh7.5 cells with HCVsg 2a", "format": "cell-based, hepatitis C virus genotype 2a", "conditions": "genotype 2a replicon, G418 selection"}, "[12]": {"conditions": "Hepatitis C virus, Huh7.5, 72 h"}}, "note": "Where two headings read alike, the source gives them in different places."}
{"smiles": "CC(C)(C)NC(=O)N[C@H](C(=O)N1C[C@H]2[C@@H]([C@H]1C(=O)NC(CC1CCC1)C(=O)C(N)=O)C2(C)C)C(C)(C)C", "note": "(some centres unmarked) [Boceprevir]", "values": [{"measurement": "Inhibition of NS3 in an MBHA", "setting": "[1]", "value": "do not inhibit"}, {"measurement": "CC50", "setting": "Cell viability assay; replicon-bearing Huh7.5 cells", "value": "> 100", "unit": "µM"}, {"measurement": "Interaction with HPI (deviation from additive effects)", "setting": "[2]", "value": "no significant deviations from additive effects"}, {"measurement": "EC50", "setting": "[3]; [12]", "value": "0.64 ± 0.1", "unit": "µM"}]}
{"smiles": "CC(C)(C)OC(=O)N[C@H]1CCCCC/C=C\\[C@@H]2C[C@@]2(C(=O)NS(=O)(=O)C2CC2)NC(=O)[C@@H]2C[C@@H](OC(=O)N3Cc4cccc(F)c4C3)CN2C1=O", "note": "[Danoprevir]", "values": [{"measurement": "Inhibition of NS3 in an MBHA", "setting": "[1]; full-length NS3", "value": "do not inhibit"}, {"measurement": "CC50", "setting": "Cell viability assay", "value": 100, "unit": "µM"}, {"measurement": "Volume under the synergy plot (difference from Bliss additivity)", "setting": "[2]", "value": 17, "unit": "μM^2%"}, {"measurement": "Interaction with HPI (deviation from additive effects)", "setting": "[2]", "value": "Minor, insignificant synergy"}, {"measurement": "EC50", "setting": "[3]; [12]", "value": "0.002 ± 0.0005", "unit": "µM"}]}
{"smiles": "C=C[C@@H]1C[C@]1(NC(=O)[C@@H]1C[C@@H]2CN1C(=O)[C@H](C(C)(C)C)NC(=O)O[C@@H]1C[C@H]1CCCCCc1nc3ccc(OC)cc3nc1O2)C(=O)NS(=O)(=O)C1CC1", "note": "[Grazoprevir]", "values": [{"measurement": "CC50", "setting": "Cell viability assay; replicon-bearing Huh7.5 cells", "value": "54 ± 5", "unit": "µM"}, {"measurement": "Volume under the synergy plot (difference from Bliss additivity)", "setting": "[2]", "value": 101, "unit": "μM^2%"}, {"measurement": "EC50", "setting": "[3]; [12]", "value": "0.00076 ± 0.00013", "unit": "µM"}]}
{"smiles": "Cc1ccc2nc(-c3ccc4nc(-c5ccc(NC(=O)c6cc(C(F)(F)F)cc(C(F)(F)F)c6)cc5)sc4c3)sc2c1S(=O)(=O)O.N", "note": "[HPI]", "values": [{"measurement": "Effect of mutation on ability to inhibit NS3-catalyzed peptide cleavage", "setting": "scNS4A-NS3 V524A", "value": "do not affect"}, {"measurement": "Inhibition of NS3 in an MBHA", "setting": "[1]; full-length NS3", "value": "inhibits full-length NS3 in an MBHA"}, {"measurement": "IC50", "setting": "[1]; read-out: IC50, molecular beacon-based helicase assay, NS3-catalyzed DNA unwinding, normalized initial velocities", "value": "6 ± 2", "unit": "µM"}, {"measurement": "Effect of substitution on ability to inhibit the NS3 protease", "setting": "scNS4A-NS3 Q526A", "value": "neither the Q526A nor H528A substitutions influenced"}, {"measurement": "Activity on telaprevir-resistant replicon versus HCVsg 1b(con1) replicon", "setting": "[4]", "value": "equally active"}, {"measurement": "Effect on viability of cells containing HCVsg 1b(con1) or HCVsg 2a(JFH1)", "setting": "Huh7.5 cell viability; concentrations up to 100 μM", "value": "did not affect the viability"}, {"measurement": "CC50", "setting": "Huh7.5 cell viability; read-out: CC50 (concentration needed to reduce cell viability by 50%), Huh7.5 cells", "value": "> 100", "unit": "µM"}, {"measurement": "Activity against the HCVsg 2a(JFH1) replicon", "setting": "HCVsg 2a(JFH1) replicon [5]", "value": "little activity"}, {"measurement": "Amount needed to inhibit NS3-catalyzed peptide cleavage versus scNS4A-NS3", "setting": "[6]", "value": "considerably more HPI was needed"}, {"measurement": "Effect on cell viability, dengue replicon cells", "setting": "[7]", "value": "no effect on cell viability"}, {"measurement": "Activity on telaprevir-resistant replicon versus HCVsg 1b(con1) replicon", "setting": "[8]", "value": "equally active"}, {"measurement": "EC50", "setting": "[3]; Huh7.5 cells, 72 hours, relative to DMSO", "value": "15 ± 4", "unit": "µM"}, {"measurement": "Effect of substitution on ability to inhibit the NS3 protease", "setting": "scNS4A-NS3 H528A", "value": "neither the Q526A nor H528A substitutions influenced"}, {"measurement": "Antiviral activity on subgenomic dengue virus replicon", "setting": "[9]", "value": "no antiviral activity"}, {"measurement": "Change in sensitivity of the cell line to the compound after selection", "setting": "[10]; incubated with HPI twice as long as 3 weeks (6 weeks)", "value": "≤ 2", "unit": "fold"}, {"measurement": "Sensitivity of cells that became resistant to telaprevir", "setting": "[10]; telaprevir-selected cells, data not shown", "value": "retained sensitivity"}, {"measurement": "Antiviral activity in colony-formation assay", "setting": "HCVsg 2a(JFH1) replicon [11]", "value": "some antiviral activity"}]}
{"smiles": "CCC[C@H](NC(=O)[C@@H]1[C@H]2CCC[C@H]2CN1C(=O)[C@@H](NC(=O)[C@@H](NC(=O)c1cnccn1)C1CCCCC1)C(C)(C)C)C(=O)C(=O)NC1CC1", "note": "[Telaprevir]", "values": [{"measurement": "Inhibition of NS3 in an MBHA", "setting": "[1]", "value": "do not inhibit"}, {"measurement": "CC50", "setting": "Cell viability assay; replicon-bearing Huh7.5 cells", "value": "45 ± 4", "unit": "µM"}, {"measurement": "Interaction with HPI (deviation from additive effects)", "setting": "[2]", "value": "no significant deviations from additive effects"}, {"measurement": "EC50", "setting": "[3]; [12]", "value": "0.81 ± 0.4", "unit": "µM"}, {"measurement": "Sensitivity of cells that were incubated with HPI", "setting": "[10]; HPI-selected cells, data not shown", "value": "retained sensitivity"}, {"measurement": "Resistance after incubation with the compound", "setting": "[10]; incubated with telaprevir for 3 weeks", "value": "became resistant"}]}
